For the test, the target named is T1, recombinant guanylate cyclase reporter cell line (Rattus norvegicus, UniProt P19686+P20595).
T1 construct: expressed in transfected cells; host or cells: recombinant reporter cell line
T1 sequence (P19686 1-690): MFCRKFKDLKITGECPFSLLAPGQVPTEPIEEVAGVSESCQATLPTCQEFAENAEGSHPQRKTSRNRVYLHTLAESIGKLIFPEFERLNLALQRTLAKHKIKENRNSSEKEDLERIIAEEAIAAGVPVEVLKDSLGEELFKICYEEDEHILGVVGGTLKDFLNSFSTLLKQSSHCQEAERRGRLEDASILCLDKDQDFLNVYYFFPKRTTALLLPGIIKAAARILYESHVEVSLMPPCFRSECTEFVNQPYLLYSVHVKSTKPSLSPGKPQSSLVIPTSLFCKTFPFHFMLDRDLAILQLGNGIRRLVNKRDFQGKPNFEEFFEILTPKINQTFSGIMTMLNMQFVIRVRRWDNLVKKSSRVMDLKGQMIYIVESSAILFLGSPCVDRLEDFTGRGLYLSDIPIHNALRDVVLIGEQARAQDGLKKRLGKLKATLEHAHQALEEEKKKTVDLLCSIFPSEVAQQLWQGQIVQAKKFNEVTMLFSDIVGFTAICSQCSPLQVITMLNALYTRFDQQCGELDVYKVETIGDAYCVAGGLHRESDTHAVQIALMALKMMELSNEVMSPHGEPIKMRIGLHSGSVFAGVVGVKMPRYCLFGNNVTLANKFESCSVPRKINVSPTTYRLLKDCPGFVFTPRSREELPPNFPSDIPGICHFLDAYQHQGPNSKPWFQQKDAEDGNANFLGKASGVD
T1 sequence (P20595 1-619): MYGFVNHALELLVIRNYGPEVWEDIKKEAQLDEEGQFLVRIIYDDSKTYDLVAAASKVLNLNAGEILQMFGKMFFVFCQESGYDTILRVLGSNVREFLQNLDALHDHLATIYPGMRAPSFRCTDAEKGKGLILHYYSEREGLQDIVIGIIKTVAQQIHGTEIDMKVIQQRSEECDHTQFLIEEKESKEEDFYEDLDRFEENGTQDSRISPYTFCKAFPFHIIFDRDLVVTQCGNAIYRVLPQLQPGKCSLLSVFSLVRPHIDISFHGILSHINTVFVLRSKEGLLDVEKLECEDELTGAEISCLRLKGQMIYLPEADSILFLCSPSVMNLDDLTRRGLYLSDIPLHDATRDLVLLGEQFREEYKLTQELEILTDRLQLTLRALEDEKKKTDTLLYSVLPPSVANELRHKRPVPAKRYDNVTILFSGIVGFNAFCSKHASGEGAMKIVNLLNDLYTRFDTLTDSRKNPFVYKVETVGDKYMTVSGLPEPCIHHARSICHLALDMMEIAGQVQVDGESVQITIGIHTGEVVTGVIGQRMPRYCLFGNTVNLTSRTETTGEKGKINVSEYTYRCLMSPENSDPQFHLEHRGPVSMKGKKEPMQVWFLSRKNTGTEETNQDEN
The test is described as follows: Action on recombinant guanylate cyclase reporter cell line. It counts as cell-based. The settings on record: in some cases mean values from individual determinations. As for the experimental part: B-2. Action on Recombinant Guanylate Cyclase Reporter Cell Line
The cellular action of the compounds according to the invention is determined on a recombinant guanylate cyclase reporter cell line, as described in F. Wunder et al., Anal. Biochem. 339, 104-112 (2005).
Representative MEC values (MEC=minimal effective concentration) for the compounds according to the invention are shown in the following table (in some cases as mean values obtained from individual determinations): […]
On to `Cc1nc2c(OCc3c(F)cccc3F)cc(Cl)cn2c1C(=O)NCC(N)COC(C)C` (racemic) [Example 217, rac-N-(2-Amino-3-isopropoxypropyl)-6-chloro-8-[(2,6-difluorobenzyl)oxy]-2-methylimidazo[1,2-a]pyridine-3-carboxamide], for which the “MEC (minimal effective concentration)” value was 1.00 µM. The result for `CCC(C)(N)CNC(=O)c1c(C)nc2c(OCc3c(F)cccc3F)cc(C(F)F)cn12` (single isomer, unassigned; enantiomer a) [Example 288, ent-N-(2-amino-2-methylbutyl)-8-[(2,6-difluorobenzyl)oxy]-6-(difluoromethyl)-2-methylimidazo[1,2-a]pyridine-3-carboxamide (Enantiomer A)] reads 0.3 µM; that for `Cc1cc(OCc2c(F)cccc2F)c2nc(C)c(C(=O)NCC3CCc4ccccc4N3)n2c1` (racemic) [Example 235, rac-8-[(2,6-Difluorobenzyl)oxy]-2,6-dimethyl-N-(1,2,3,4-tetrahydroquinolin-2-ylmethyl)imidazo-[1,2-a]pyridine-3-carboxamide], 0.30 µM.

Regarding `Cc1cc(OCc2c(F)cccc2F)c2nc(C)c(C(=O)NC(CN)c3ccc4c(c3)OCCO4)n2c1` (racemic) [Example 388, rac-N-[2-amino-1-(2,3-dihydro-1,4-benzodioxin-6-yl)ethyl]-8-[(2,6-difluorobenzyl)oxy]-2,6-dimethylimidazo[1,2-a]pyridine-3-carboxamide], the “MEC (minimal effective concentration)” value is 0.30 µM. As for `CCCC(C)(N)CNC(=O)c1c(C)nc2c(OCc3c(F)cccc3F)cc(Br)cn12` (stereo not drawn) [Example 306, ent-N-(2-amino-2-methylpentyl)-6-bromo-8-[(2,6-difluorobenzyl)oxy]-2-methylimidazo[1,2-a]pyridine-3-carboxamide], the “MEC (minimal effective concentration)” value is 0.10 µM.

With `Cc1nc2c(OCc3c(F)cccc3Cl)cccn2c1C(=O)NC(CN)c1ccc(F)c(F)c1` (stereo not drawn) [Example 102, ent-N-[2-amino-1-(3,4-difluorophenyl)ethyl]-8-[(2-chloro-6-fluorobenzyl)oxy]-2-methylimidazo[1,2-a]pyridine-3-carboxamide], the “MEC (minimal effective concentration)” value turned out to be 1.00 µM.

As to `CC[C@](C)(N)CNC(=O)c1c(C)nc2c(OCc3c(F)cccc3F)cc(C)cn12` (single isomer, unassigned) [Example 200], the “MEC (minimal effective concentration)” value came out at 0.04 µM. `CCCC(C)(N)CNC(=O)c1c(C)nc2c(OCc3cccc(F)c3)cc(C)cn12` (racemic) [Example 348, rac-N-(2-amino-2-methylpentyl)-8-[(3-fluorobenzyl)oxy]-2,6-dimethylimidazo[1,2-a]pyridine-3-carboxamide]: the “MEC (minimal effective concentration)” value came to 1.00 µM. The same measure for `COCC(N)CNC(=O)c1c(C)nc2c(OCc3c(F)cccc3F)cc(C)cn12` (single isomer, unassigned) [Example 242, ent-N-(2-Amino-3-methoxypropyl)-8-[(2,6-difluorobenzyl)oxy]-2,6-dimethylimidazo[1,2-a]-pyridine-3-carboxamide]: 0.30 µM; for `Cc1cc(OCc2c(F)cccc2F)c2nc(C)c(C(=O)NCC(C)(N)CO)n2c1` (single isomer, unassigned; enantiomer a) [Example 268, ent-N-(2-Amino-3-hydroxy-2-methylpropyl)-8-[(2,6-difluorobenzyl)oxy]-2,6-dimethylimidazo-[1,2-a]pyridine-3-carboxamide (Enantiomer A)]: 0.55 µM; for `CCC(C)(N)CNC(=O)c1c(C)nc2c(OCc3c(F)cccc3F)cc(C)cn12.Cl` (single isomer, unassigned; enantiomer a) [Example 357, ent-N-(2-amino-2-methylbutyl)-8-[(2,6-difluorobenzyl)oxy]-2,6-dimethylimidazo[1,2-a]pyridine-3-carboxamide hydrochloride (Enantiomer A)]: 0.03 µM. With `Cc1nc2c(OCc3c(F)cccc3F)cc(F)cn2c1C(=O)NCC(C)(C)N` [Example 140, N-(2-Amino-2-methylpropyl)-8-[(2,6-difluorobenzyl)oxy]-6-fluoro-2-methylimidazo[1,2-a]-pyridine-3-carboxamide], the “MEC (minimal effective concentration)” value is 1.00 µM.

For the compound `Cc1nc2c(OCc3c(F)cccc3F)cccn2c1C(=O)NC(CN)COc1ccc(F)c(F)c1` (stereo not drawn) [Example 124, ent-N-[1-Amino-3-(3,4-difluorophenoxyl)propan-2-yl]-8-[(2,6-difluorobenzyl)oxy]-2-methyl-imidazo[1,2-a]pyridine-3-carboxamide ditrifluoroacetate], the “MEC (minimal effective concentration)” value was found to be 1.00 µM.

For the compound `CCCC(C)(N)CNC(=O)c1c(C)nc2c(OCc3cccc(C)c3F)cc(C)cn12` (racemic) [Example 317, rac-N-(2-amino-2-methylpentyl)-8-[(2-fluoro-3-methylbenzyl)oxy]-2,6-dimethylimidazo[1,2-a]pyridine-3-carboxamide], the “MEC (minimal effective concentration)” value came to 0.30 µM. On to `CCCC(C)(N)CNC(=O)c1c(C)nc2c(OCc3c(F)cccc3F)cc(C(F)F)cn12` (single isomer, unassigned; enantiomer b) [Example 290, ent-N-(2-amino-2-methylpentyl)-8-[(2,6-difluorobenzyl)oxy]-6-(difluoromethyl)-2-methyl-imidazo[1,2-a]pyridine-3-carboxamide (Enantiomer B)], for which the “MEC (minimal effective concentration)” value is 0.3 µM. The result for `CCC(C)(N)CNC(=O)c1c(C)nc2c(OCc3c(F)cccc3F)cccn12` (racemic) [Example 254, rac-N-(2-Amino-2-methylbutyl)-8-[(2,6-difluorobenzyl)oxy]-2-methylimidazo[1,2-a]pyridine-3-carboxamide] reads 0.30 µM. Take `CCCC(C)(N)CNC(=O)c1c(C)nc2c(OCc3c(F)ccc(OC)c3F)cc(C)cn12` (stereo not drawn) [Example 364, ent-N-(2-amino-2-methylpentyl)-8-[(2,6-difluoro-3-methoxybenzyl)oxy]-2,6-dimethylimidazo[1,2-a]pyridine-3-carboxamide]: the “MEC (minimal effective concentration)” value was 0.30 µM. Regarding `COCC(C)(N)CNC(=O)c1c(C)nc2c(OCc3c(F)cccc3F)cc(C)cn12` (single isomer, unassigned) [Example 199, ent-N-(2-Amino-3-methoxy-2-methylpropyl)-8-[(2,6-difluorobenzyl)oxy]-2,6-dimethylimidazo-[1,2-a]pyridine-3-carboxamide], the “MEC (minimal effective concentration)” value was 0.30 µM. Take `COC(=O)[C@@H](N)CNC(=O)c1c(C)nc2c(OCc3c(F)cccc3F)cc(C)cn12` [Example 319, Methyl 3-[({8-[(2,6-difluorobenzyl)oxy]-2,6-dimethylimidazo[1,2-a]pyridin-3-yl}carbonyl)amino]-L-alaninate]: the “MEC (minimal effective concentration)” value was found to be 0.30 µM.

For `CCCC[C@H](CN(C)C)NC(=O)c1c(C)nc2c(OCc3c(F)cccc3F)cccn12` [Example 68, ent-8-[(2,6-difluorobenzyl)oxy]-N-[(2R)-1-(dimethylamino)hexan-2-yl]-2-methylimidazo[1,2-a]-pyridine-3-carboxamide], the “MEC (minimal effective concentration)” value was found to be 0.30 µM.

With `Cc1nc2c(OCc3c(F)cccc3F)cccn2c1C(=O)NCC(C)(C)N(C)C` [Example 145, 8-[(2,6-difluorobenzyl)oxy]-N-[2-(dimethylamino)-2-methylpropyl]-2-methylimidazo[1,2-a]pyridine-3-carboxamide], the “MEC (minimal effective concentration)” value turned out to be 3.00 µM. The result for `CCCC(C)(N)CNC(=O)c1c(C)nc2c(OCc3ccccc3)cc(C)cn12` (racemic) [Example 340, rac-N-(2-amino-2-methylpentyl)-8-(benzyloxy)-2,6-dimethylimidazo[1,2-a]pyridine-3-carboxamide] reads 1.00 µM.
